Assay results as given in patent US20050026979A1, “Methods for treating inflammation and inflammation-associated diseases with a statin and ether” (priority 2003, published 2005).

Tested on: monosodium iodoacetate ("MIA")-induced knee joint arthritis
Assay: Monosodium iodoacetate (MIA)-induced osteoarthritis joint pain model, acute dosing paradigm (hind paw weight distribution, incapacitance tester)
Type: in vivo, rat (male Wistar)
Conditions: for Change in Hind Paw Weight Distribution: Day 7 post-MIA, mean, n=6
Procedure: Monosodium Iodoacetate (“MIA”)-Induced Osteoarthritis:
Male Wistar rats (175-200 g) were housed in solid bottom isolator cages, […], with corncob bedding on a 12 hour:12 hour light:dark cycle. Animals were fed standard rat chow with water available ad libitum.
The rats were anesthetized with 5% volume/volume (“v/v”) isoflurane gas and maintained with 2% v/v isoflurane gas. The anesthetized rats were given a single intra-articular injection of 1 mg of MIA through the infrapatellar ligament of the right knee. MIA was dissolved in physiologic saline and administered in a volume of 50 μL. The contralateral control knee was injected with 50 μL of physiologic saline. Administration of isoflurane gas was discontinued, and the rats became fully conscious about 5 minutes later.
Shifts in hind paw weight distribution from the right to the left hind paws supporting the right (arthritic) and the left (contralateral control) hind leg knee joints were utilized as an index of joint pain and as a measure of compound efficacy. An incapacitance tester (Model 2KG, Linton Instrumentation, UK) was employed for determination of hind paw weight distribution. Each data point is the mean of three readings of 5 seconds duration.
The acute dosing paradigm used herein relates to osteoarthritis signs such as mobility and joint function and osteoarthritis symptoms such as joint pain. In this dosing paradigm, changes in hind paw weight distribution were determined early on Day 7 post-MIA injection, as described previously, to establish a baseline pain reading. […] Changes in hind paw weight distribution were determined 2, 4 and 6 hours post-compound administration.
MIA was injected into the right knee and saline into the left knee of all rats on Day 0. […] Two, four, and six hours later, the rats were re-assessed.
Statistically significant differences were determined by one-way ANOVA followed by Dunnett's multiple comparisons procedure. Data are expressed as mean±SEM. N=6 rats per group.

## CC(C)(CCCCOCCCCC(C)(C)C(=O)[O-])C(=O)[O-].[Ca+2] [Compound A, 6-(5-carboxy-5-methyl-hexyloxy)-2,2-dimethyl-hexanoic acid calcium salt]
2 hr post-dose, Compound A 10 mg/kg PO
  Change in Hind Paw Weight Distribution: 21 g
4 hr post-dose, Compound A 10 mg/kg PO
  Change in Hind Paw Weight Distribution: 15 g
6 hr post-dose, Compound A 10 mg/kg PO
  Change in Hind Paw Weight Distribution: 21 g
Compound A 10 mg/kg PO, 2, 4 and 6 hour post-dose time points
  Effect on shift in weight bearing potential (joint pain) versus vehicle, in words: altered the shift in weight bearing potential (joint pain) in arthritic rats at the 2, 4 and 6 hour post-dose time points in a statistically significant manner
Pre-Dose (Baseline), group later given Compound A 10 mg/kg PO
  Change in Hind Paw Weight Distribution: 32 g
